Laboratory results from patent US20240083910A1, “AMIDO-SUBSTITUTED PYRIDYL COMPOUNDS AND METHODS OF USE THEREOF FOR THE TREATMENT OF HERPESVIRUSES” (Merck Sharp & Dohme LLC, priority 2020, published 2024).
Like-named read-outs stand apart in the source and are kept apart here.

What was measured:
[1] = target: T1, Human cytomegalovirus DNA polymerase (Human cytomegalovirus, UniProt P08546); test: CMV polymerase assay (AlphaLISA); type: biochemical; settings: HCMV polymerase 0.2 nM; 30 min pre-incubation; 60 min at 37° C.; read-out: CMV (IC50)
T1 construct: made in house; host or cells: SF21 insect cells (baculovirus vector)
How it was run: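 Baculovirus-expressed polymerase (HCMV 0.2 nM, VZV 0.4 nM) preincubated 30 min with compound, then reacted 60 min at 37 °C with 1.6 nM DIG-primer/59-mer template and low-nM dNTPs including 0.8 nM biotin-dUTP. Incorporation detected by AlphaLISA; IC50 from a 4-parameter fit normalized to DMSO and pre-quenched controls.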

[2] = target: T2, varicella zoster virus DNA polymerase (Varicella-zoster virus, UniProt P09252); test: VZV polymerase assay (AlphaLISA); type: biochemical; settings: VZV polymerase 0.4 nM; 30 min pre-incubation; 60 min at 37° C.
T2 construct: made in house; host or cells: SF21 insect cells (baculovirus vector)
Procedure: Human cytomegalovirus and varicella zoster virus DNA polymerases were expressed via baculovirus vector in SF21 cells and purified. Heterodimeric nucleic acid substrate used in the herpesvirus polymerase reactions was generated by annealing a 59-mer template to a 17-mer digoxigenin-labeled primer. Polymerase (HCMV final concentration of 0.2 nM; VZV final concentration of 0.4 nM) was combined with an inhibitor compound or DMSO in assay buffer (10 mM HEPES, pH 7.5, 25 mM KCl, 25 mM NaCl, 5 mM MgCl2, 5% glycerol, 0.67 mg/ml bovine serum albumin, and 1 mM tris(2-carboxyethyl)phosphine), and this mixture was pre-incubated for 30 minutes at room temperature in 384-well microtiter plates. The polymerization reaction was initiated by the addition of template/primer substrate (final concentration: 1.6 nM), and dNTPs (final concentration: 24 nM dCTP, 24 nMdGTP, 16 nM dATP, 16 nM dTTP, and 0.8 nM biotin-dUTP). After 60 min incubation at 37° C., reactions were terminated with quench buffer (25 mM HEPES pH 7.5, 100 mM NaCl, 0.25% Tween-20, 12 mM EDTA, and 1 mg/ml bovine serum albumin). Incorporation of biotinylated UTP was detected with 2.5-5 ug/ml anti-DIG AlphaLISA acceptor beads and 5-10 ug/ml streptavidin AlphaLISA donor beads (PerkinElmer). Compound effects were normalized to the window defined by the controls (DMSO only and pre-quenched wells) and were fit using a 4-parameter algorithm to report an IC50.

[3] = system: HCMV Strain AD169; test: Viral qPCR assay, HCMV; type: cell-based, Human cytomegalovirus; settings: MRC-5 cells, 0.05-0.1 pfu/cell, growth media or 50% fetal bovine serum, viral genome copies by qPCR, read-out: CMV Cell (EC50)
How it was run: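 HCMV AD169 at 0.05-0.1 pfu/cell infected MRC-5 cells, added to 10-point 3-fold compound dilutions, in growth medium or medium with 50% FBS; ~72 h at 37°C. Viral genome copies by TaqMan qPCR against plasmid standard curve, normalized to DMSO and uninfected controls; EC50 from 4-parameter fit.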

[4] = system: VZV; test: Viral qPCR assay, VZV; type: cell-based, varicella zoster virus; settings: MeWo or MRC5 cells, 0.04-0.1 pfu/cell, growth medium, viral genome copies by qPCR
How it was run: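 VZV strain Street at 0.04-0.1 pfu/cell infected MeWo or MRC5 cells added to 10-point, 3-fold compound dilutions; ~72 h at 37° C. Viral genome copies by TaqMan qPCR against plasmid standard curve, sometimes normalised to PPIA, scaled between uninfected and DMSO-infected controls; EC50 from 4-parameter fit.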

[5] = system: HSV-1 Strain F; test: Viral qPCR assay, HSV-1; type: cell-based, Herpes Simplex Virus type 1; settings: Vero or MRC5 cells, 0.0005-0.004 pfu/cell, growth medium, viral genome copies by qPCR, read-out: HSV1 Cell (EC50)
How it was run: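 HSV-1 strain F at 0.0005–0.004 pfu/cell infected Vero or MRC5 cells, which were added to a 10-point 3-fold compound dilution and cultured ~72 h at 37 °C. Viral genomes in the lysates were quantified by TaqMan qPCR against a plasmid standard curve, in some runs normalized to cellular PPIA. EC50 came from a 4-parameter fit of % effect.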

[6] = Human betaherpesvirus 5, AD169, MRC5, 72 h

T1 sequence (P08546 whole entry): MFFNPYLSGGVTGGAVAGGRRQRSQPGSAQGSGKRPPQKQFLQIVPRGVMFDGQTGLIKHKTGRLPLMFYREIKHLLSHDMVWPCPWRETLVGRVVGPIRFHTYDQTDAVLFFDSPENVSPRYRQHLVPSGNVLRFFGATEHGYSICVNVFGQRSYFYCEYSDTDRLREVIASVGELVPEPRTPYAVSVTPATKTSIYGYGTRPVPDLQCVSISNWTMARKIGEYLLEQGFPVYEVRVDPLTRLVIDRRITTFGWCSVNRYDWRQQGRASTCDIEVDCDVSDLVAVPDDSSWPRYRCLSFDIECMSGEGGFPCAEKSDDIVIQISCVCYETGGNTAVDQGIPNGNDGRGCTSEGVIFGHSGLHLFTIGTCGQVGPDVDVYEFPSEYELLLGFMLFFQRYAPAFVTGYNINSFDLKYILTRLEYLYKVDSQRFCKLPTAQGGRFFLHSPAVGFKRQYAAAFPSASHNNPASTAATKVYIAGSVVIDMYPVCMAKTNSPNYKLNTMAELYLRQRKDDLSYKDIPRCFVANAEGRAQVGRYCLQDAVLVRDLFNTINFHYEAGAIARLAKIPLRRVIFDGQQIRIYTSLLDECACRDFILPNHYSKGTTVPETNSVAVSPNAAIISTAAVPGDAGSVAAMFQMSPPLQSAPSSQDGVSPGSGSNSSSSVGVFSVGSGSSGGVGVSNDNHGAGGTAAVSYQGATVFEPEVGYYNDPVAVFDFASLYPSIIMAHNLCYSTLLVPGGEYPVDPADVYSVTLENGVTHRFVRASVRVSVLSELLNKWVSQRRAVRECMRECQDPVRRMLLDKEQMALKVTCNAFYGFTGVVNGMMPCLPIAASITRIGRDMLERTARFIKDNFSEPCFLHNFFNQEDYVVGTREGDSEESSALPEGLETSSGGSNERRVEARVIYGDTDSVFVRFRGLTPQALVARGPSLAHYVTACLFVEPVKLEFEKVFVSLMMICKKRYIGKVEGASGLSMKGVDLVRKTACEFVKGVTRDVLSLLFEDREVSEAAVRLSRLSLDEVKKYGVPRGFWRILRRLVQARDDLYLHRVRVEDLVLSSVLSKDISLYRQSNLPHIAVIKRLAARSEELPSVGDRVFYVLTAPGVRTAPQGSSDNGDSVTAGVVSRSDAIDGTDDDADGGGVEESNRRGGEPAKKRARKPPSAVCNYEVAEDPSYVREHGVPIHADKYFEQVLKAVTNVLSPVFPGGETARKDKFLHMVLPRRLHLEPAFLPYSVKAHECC
T2 sequence (P09252 whole entry): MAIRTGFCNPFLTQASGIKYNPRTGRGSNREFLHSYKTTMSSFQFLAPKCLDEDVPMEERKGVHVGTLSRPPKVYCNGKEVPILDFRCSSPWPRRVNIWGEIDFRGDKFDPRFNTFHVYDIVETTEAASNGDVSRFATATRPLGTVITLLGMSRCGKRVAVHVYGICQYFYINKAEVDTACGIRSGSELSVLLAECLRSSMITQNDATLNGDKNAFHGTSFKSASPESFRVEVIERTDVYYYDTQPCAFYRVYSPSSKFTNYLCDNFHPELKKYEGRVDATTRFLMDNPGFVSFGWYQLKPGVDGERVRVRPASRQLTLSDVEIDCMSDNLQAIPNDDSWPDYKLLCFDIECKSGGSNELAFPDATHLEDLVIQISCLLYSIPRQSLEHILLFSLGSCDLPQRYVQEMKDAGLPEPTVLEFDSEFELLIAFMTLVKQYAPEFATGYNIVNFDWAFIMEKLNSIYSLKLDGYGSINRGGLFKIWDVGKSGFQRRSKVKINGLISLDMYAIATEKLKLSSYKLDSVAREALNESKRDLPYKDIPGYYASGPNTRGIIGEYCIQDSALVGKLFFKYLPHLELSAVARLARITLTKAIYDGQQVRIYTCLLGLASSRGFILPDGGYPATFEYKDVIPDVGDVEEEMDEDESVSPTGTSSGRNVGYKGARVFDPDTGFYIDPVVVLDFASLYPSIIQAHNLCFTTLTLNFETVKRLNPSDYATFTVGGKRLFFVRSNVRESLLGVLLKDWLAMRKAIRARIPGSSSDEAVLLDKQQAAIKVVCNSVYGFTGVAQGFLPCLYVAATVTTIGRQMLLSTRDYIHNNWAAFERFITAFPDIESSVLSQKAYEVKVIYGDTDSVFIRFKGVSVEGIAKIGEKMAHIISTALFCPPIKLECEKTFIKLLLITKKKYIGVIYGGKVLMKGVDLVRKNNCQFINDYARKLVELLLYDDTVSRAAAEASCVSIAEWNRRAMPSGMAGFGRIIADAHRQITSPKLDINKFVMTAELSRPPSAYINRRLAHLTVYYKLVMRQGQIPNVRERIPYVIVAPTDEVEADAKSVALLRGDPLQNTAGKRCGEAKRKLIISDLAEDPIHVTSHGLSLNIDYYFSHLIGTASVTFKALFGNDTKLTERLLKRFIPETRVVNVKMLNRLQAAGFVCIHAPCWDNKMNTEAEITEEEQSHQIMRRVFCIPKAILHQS

Compound | IC50 [1] | IC50 [2] | EC50 [3, 6] | EC50 ([4]; Human alphaherpesvirus 3, 72 h) | EC50 ([5]; Human alphaherpesvirus 1, 72 h) | EC50 ([3]; ~72 hrs) | EC50 ([4]; ~72 hrs) | EC50 ([5]; ~72 hrs)
COc1nc(N2CCC(C(C)(C)N)C2)c(O[C@H]2CCN3C(=O)OC[C@@H]3C2)cc1C(=O)NCc1ccc(Cl)cc1 (single isomer, unassigned) [Compound 71] | 22.8 nM | 3.54 nM | 221 nM | 468 nM | 396 nM |  |  | 
COc1nc(N2CCC(C(C)(C)N)C2)c(O[C@H]2CCN3C(=O)OC[C@@H]3C2)cc1C(=O)NCc1ccc(Cl)cc1 (single isomer, unassigned) [Compound 72] | 45.5 nM | 12.4 nM |  |  |  | 276 nM | 665 nM | 559 nM
COc1nc(-c2cnn(C(F)F)c2)c(O[C@H]2CCN3C(=O)OC[C@@H]3C2)cc1C(=O)NCc1ccc(Cl)cc1 [Compound 4] | 7.52 nM | 0.715 nM | 146 nM | 141 nM | 105 nM |  |  | 
COc1nc(-c2cnc(C)o2)c(O[C@H]2CCN3C(=O)OC[C@@H]3C2)cc1C(=O)NCc1ccc(Cl)cc1 [Compound 5] | 4.11 nM | 0.161 nM | 71.4 nM | 107 nM | 80.1 nM |  |  | 
COc1nc(-c2cnco2)c(O[C@H]2CCN3C(=O)OC[C@@H]3C2)cc1C(=O)NCc1ccc(Cl)cc1 [Compound 6] | 1.05 nM | 0.0674 nM | 77 nM | 110 nM | 87.5 nM |  |  | 
COc1nc(-c2cc(C)ns2)c(O[C@H]2CCN3C(=O)OC[C@@H]3C2)cc1C(=O)NCc1ccc(Cl)cc1 [Compound 7] | 1.32 nM | 0.223 nM | 82.6 nM | 129 nM | 72.6 nM |  |  | 
COc1nc(C)c(O[C@H]2CCN3C(=O)OC[C@@H]3C2)cc1C(=O)NCc1ccc(Cl)cc1 [Compound 8] | 37.9 nM | 15 nM | 415 nM | 841 nM | 866 nM |  |  | 
COc1nc(-c2cc(C)no2)c(O[C@H]2CCN3C(=O)OC[C@@H]3C2)cc1C(=O)NCc1ccc(Cl)cc1 [Compound 9] | 4.87 nM | 1.71 nM | 111 nM | 98.4 nM | 85.7 nM |  |  | 
COc1nc(-c2cnc(C3CC3)o2)c(O[C@H]2CCN3C(=O)OC[C@@H]3C2)cc1C(=O)NCc1ccc(Cl)cc1 [Compound 10] | 11.3 nM | 0.508 nM | 134 nM | 131 nM | 150 nM |  |  | 
COc1nc(-c2cnn(Cc3ccccn3)c2)c(O[C@H]2CCN3C(=O)OC[C@@H]3C2)cc1C(=O)NCc1ccc(Cl)cc1 [Compound 15] | 12 nM | 12.9 nM | 144 nM | 355 nM | 233 nM |  |  | 
COc1nc(-c2cncs2)c(O[C@H]2CCN3C(=O)OC[C@@H]3C2)cc1C(=O)NCc1ccc(Cl)cc1 [Compound 16] | 2.07 nM | 0.63 nM | 137 nM |  |  |  |  | 
O=C(NCc1ccc(Cl)cc1)c1cc(O[C@H]2CCN3C(=O)OC[C@@H]3C2)c(-c2cnn(C(F)F)c2)nc1OCC1CC1(F)F (some centres unmarked) [Compound 91] | 18.5 nM |  | 271 nM | 569 nM | 346 nM |  |  | 
CC(C)(C#N)COc1nc(-c2cnn(C(F)F)c2)c(O[C@H]2CCN3C(=O)OC[C@@H]3C2)cc1C(=O)NCc1ccc(Cl)cc1 [Compound 92] | 7.31 nM |  | 137 nM | 417 nM | 229 nM |  |  | 
CC(O)COc1nc(-c2cnn(C(F)F)c2)c(O[C@H]2CCN3C(=O)OC[C@@H]3C2)cc1C(=O)NCc1ccc(Cl)cc1 (some centres unmarked) [Compound 93] | 4.62 nM |  | 204 nM | 250 nM | 59.1 nM |  |  | 
CN1C(=O)NC[C@@H]1COc1nc(-c2cnn(C(F)F)c2)c(O[C@H]2CCN3C(=O)OC[C@@H]3C2)cc1C(=O)NCc1ccc(Cl)cc1 [Compound 94] | 5.15 nM |  | 520 nM | 2180 nM | 773 nM |  |  | 
CN(C)CCCOc1nc(-c2cnn(C(F)F)c2)c(O[C@H]2CCN3C(=O)OC[C@@H]3C2)cc1C(=O)NCc1ccc(Cl)cc1 [Compound 95] | 1.46 nM |  | 151 nM | 463 nM | 141 nM |  |  | 
CCN(CC)CCOc1nc(-c2cnn(C(F)F)c2)c(O[C@H]2CCN3C(=O)OC[C@@H]3C2)cc1C(=O)NCc1ccc(Cl)cc1 [Compound 96] | 2.72 nM |  | 75.9 nM | 400 nM | 148 nM |  |  | 
CN1CCN(CCCOc2nc(-c3cnn(C(F)F)c3)c(O[C@H]3CCN4C(=O)OC[C@@H]4C3)cc2C(=O)NCc2ccc(Cl)cc2)CC1 [Compound 98] | 14.1 nM |  | 115 nM | 617 nM | 290 nM |  |  | 
O=C1CC[C@@H](COc2nc(-c3cnn(C(F)F)c3)c(O[C@H]3CCN4C(=O)OC[C@@H]4C3)cc2C(=O)NCc2ccc(Cl)cc2)N1 [Compound 99] | 4.67 nM |  | 282 nM | 1310 nM | 493 nM |  |  | 
NC(=O)CCOc1nc(-c2cnn(C(F)F)c2)c(O[C@H]2CCN3C(=O)OC[C@@H]3C2)cc1C(=O)NCc1ccc(Cl)cc1 [Compound 100] | 3.17 nM |  | 47.4 nM | 451 nM | 213 nM |  |  | 
CCOc1nc(-c2cnn(C(F)F)c2)c(O[C@H]2CCN3C(=O)OC[C@@H]3C2)cc1C(=O)NCc1ccc(Cl)cc1 [Compound 101] | 42.6 nM |  | 524 nM | 578 nM | 320 nM |  |  | 
COc1nc(-c2cnn(C(F)F)c2)c(O[C@@H]2CCN(C(C)=O)[C@H](C)C2)cc1C(=O)NCc1ccc(Cl)cc1 [Compound 102] | 14.5 nM |  | 344 nM | 887 nM | 601 nM |  |  | 
COc1ncc(O[C@H]2CCN3C(=O)OC[C@@H]3C2)cc1C(=O)NCc1ccc(Cl)cc1 [Compound 103] | 249 nM | 110 nM | 4690 nM | 5500 nM |  |  |  | 
